Reference: ChEMBL document CHEMBL1201862, “PubChem BioAssay data set” (2004)
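All cell lines were grown in 96-well plates and treated with compound for 48 hours. At the GI50, growth is halved.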 Activity calls are given as the source filed them. Cut-off read from the data, not from the text of the source: active = GI50 up to about 1.1 µM and inactive = higher. Where a SMILES comes first, the peptide text is derived from it. The star is where a group is joined. Boc = CC(C)(C)OC(=O)*; Bn = c1ccc(C*)cc1

Assays:
Experiment in all cases: NCI tumour cell line growth inhibition, 48 h
CCRF-CEM = tested on: CCRF-CEM
NCI-H23 = tested on: NCI-H23
K562 = tested on: K562
HOP-62 = tested on: HOP-62
UACC-257 = tested on: UACC-257
SF-268 = tested on: SF-268
KM12 = tested on: KM12
A549 = tested on: A549
NCI-H460 = tested on: NCI-H460
SR = tested on: SR
MDA-N = tested on: MDA-N
TK-10 = tested on: TK-10
MDA-MB-435 = tested on: MDA-MB-435
CAKI-1 = tested on: CAKI-1
COLO 205 = tested on: COLO 205
PC-3 = tested on: PC-3
SF-295 = tested on: SF-295
SNB-75 = tested on: SNB-75
HT-29 = tested on: HT-29
SK-MEL-28 = tested on: SK-MEL-28

SMILES | GI50 (CCRF-CEM) | GI50 (NCI-H23) | GI50 (K562) | GI50 (HOP-62) | GI50 (UACC-257) | GI50 (SF-268) | GI50 (KM12) | GI50 (A549) | GI50 (NCI-H460) | GI50 (SR) | GI50 (MDA-N) | GI50 (TK-10) | GI50 (MDA-MB-435) | GI50 (CAKI-1) | GI50 (COLO 205) | GI50 (PC-3) | GI50 (SF-295) | GI50 (SNB-75) | GI50 (HT-29) | GI50 (SK-MEL-28)
COc1c(C)c(C/C=C(\C)CC/C=C(\C)CC/C=C(\C)CCC=C(C)C)c(OC)c2ccccc12 | 28.5 µM (inactive) | > 100 µM (inactive) | > 100 µM (inactive) | > 100 µM (inactive) | > 100 µM (inactive) | > 100 µM (inactive) | > 100 µM (inactive) | > 100 µM (inactive) | 39.7 µM (inactive) | 35.7 µM (inactive) | > 100 µM (inactive) | > 100 µM (inactive) | > 100 µM (inactive) | > 100 µM (inactive) | > 100 µM (inactive) | > 100 µM (inactive) | > 100 µM (inactive) | > 100 µM (inactive) | > 100 µM (inactive) | 
C=CCOC(C)(C)C1=CCC(C)CC1 (centres undefined) |  | > 100 µM (inactive) |  | > 100 µM (inactive) | > 100 µM (inactive) | > 100 µM (inactive) | > 100 µM (inactive) | > 100 µM (inactive) | > 100 µM (inactive) | > 10 µM (inactive) | > 100 µM (inactive) | > 100 µM (inactive) | > 100 µM (inactive) | > 100 µM (inactive) | > 100 µM (inactive) | > 100 µM (inactive) | > 100 µM (inactive) | > 100 µM (inactive) | > 100 µM (inactive) | > 100 µM (inactive)
O=C(O)CN1CCN(CC(=O)O)CCN(CC(=O)O)CCN(CC(=O)O)CC1 [TETRAXETAN] | > 100 µM (inactive) | > 100 µM (inactive) | > 100 µM (inactive) | > 100 µM (inactive) | > 100 µM (inactive) | > 100 µM (inactive) | > 100 µM (inactive) | > 100 µM (inactive) | > 100 µM (inactive) | > 100 µM (inactive) | > 100 µM (inactive) | > 100 µM (inactive) | > 100 µM (inactive) | > 100 µM (inactive) | > 100 µM (inactive) | > 100 µM (inactive) | > 100 µM (inactive) | > 100 µM (inactive) | > 100 µM (inactive) | 
Cc1ccc(-c2c(C#N)c(S)n(NS(=O)(=O)c3ccccc3)c(=O)c2C#N)cc1 | 9.1 µM (inactive) | 37.8 µM (inactive) | 33.6 µM (inactive) |  | 61 µM (inactive) |  | 28 µM (inactive) | 39.7 µM (inactive) | 15.6 µM (inactive) | 15.1 µM (inactive) | 29.7 µM (inactive) | 21.4 µM (inactive) | 23 µM (inactive) | 31.9 µM (inactive) | 38.5 µM (inactive) | 23.5 µM (inactive) | 34 µM (inactive) | 42.2 µM (inactive) |  | > 100 µM (inactive)
COC(=O)C(CC(C)C)NC(=O)CNC(=O)C(Cc1ccc(OCc2ccccc2)cc1)NC(=O)C(COCc1ccccc1)NC(=O)OC(C)(C)C (centres undefined) (Boc-S(Bn)Y(Bn)GL-OMe; configuration not given here) |  | > 100 µM (inactive) | 3.49 µM (inactive) | > 100 µM (inactive) |  | > 100 µM (inactive) | > 100 µM (inactive) | > 100 µM (inactive) | > 100 µM (inactive) | > 100 µM (inactive) | > 100 µM (inactive) | > 100 µM (inactive) | > 100 µM (inactive) | > 100 µM (inactive) | > 100 µM (inactive) | > 100 µM (inactive) | > 100 µM (inactive) | > 100 µM (inactive) | > 100 µM (inactive) | > 100 µM (inactive)
CC(C)(Cl)C(Br)CCC(Br)(CCl)C(Cl)CBr (centres undefined) | > 10 µM (inactive) | > 10 µM (inactive) | > 10 µM (inactive) | > 10 µM (inactive) | > 10 µM (inactive) |  | > 10 µM (inactive) |  | > 10 µM (inactive) | > 10 µM (inactive) | > 10 µM (inactive) | > 10 µM (inactive) | > 10 µM (inactive) | > 10 µM (inactive) | > 10 µM (inactive) | > 10 µM (inactive) | > 10 µM (inactive) | > 10 µM (inactive) | > 10 µM (inactive) | > 10 µM (inactive)
Cc1c2oc(=O)c(C#N)cc2c2ccccn12 | > 100 µM (inactive) | 7.64 µM (inactive) | > 100 µM (inactive) |  | > 100 µM (inactive) | > 100 µM (inactive) | 27.6 µM (inactive) | > 100 µM (inactive) | 32.5 µM (inactive) | > 100 µM (inactive) | > 100 µM (inactive) | > 100 µM (inactive) | > 100 µM (inactive) | 62.8 µM (inactive) | > 100 µM (inactive) | > 100 µM (inactive) | 20.2 µM (inactive) | > 100 µM (inactive) | > 100 µM (inactive) | > 100 µM (inactive)
COc1c(O)c2c(c3cc(C(=O)N4CCc5c4c(O)c(OC)c4[nH]c(C(=O)N6CC7CC78C6=CC(=O)c6[nH]cc(C)c68)cc54)[nH]c13)CCN2C(N)=O (centres undefined) [CC-1065] | 0.00507 µM (active) | 0.000927 µM (active) | 0.00309 µM (active) |  | 0.00352 µM (active) | 0.00259 µM (active) | 0.003 µM (active) | 0.000232 µM (active) | 0.000175 µM (active) | 0.00914 µM (active) | 0.237 µM (active) | 0.0266 µM (active) | 0.182 µM (active) | 0.000975 µM (active) | 0.00168 µM (active) | 0.164 µM (active) | 0.00119 µM (active) | 0.00356 µM (active) |  | 0.00184 µM (active)
O=C(/C=C/C=C/c1ccccc1)c1ccccc1 |  |  | 17.1 µM (inactive) |  | 16.9 µM (inactive) | 19.3 µM (inactive) | 14.3 µM (inactive) | 18.1 µM (inactive) | 21.3 µM (inactive) | 11.2 µM (inactive) | 16.2 µM (inactive) | 19.9 µM (inactive) | 17.7 µM (inactive) | 17.1 µM (inactive) | 17.7 µM (inactive) | 19.1 µM (inactive) |  | 17.8 µM (inactive) | 16.2 µM (inactive) | 17.5 µM (inactive)
O=C(O)c1nc2cc(C(F)(F)F)ccc2nc1Nc1ccc(F)cc1 | 12.6 µM (inactive) | 16 µM (inactive) | 13.5 µM (inactive) |  | 20.6 µM (inactive) | 22.3 µM (inactive) | 6.64 µM (inactive) | 11.2 µM (inactive) |  | 17.1 µM (inactive) | 22.5 µM (inactive) | 20 µM (inactive) | 7.71 µM (inactive) | 25.2 µM (inactive) | 15.9 µM (inactive) | 10.8 µM (inactive) | 13.4 µM (inactive) | 18.5 µM (inactive) | 23 µM (inactive) | 25.6 µM (inactive)
COC(=O)C(=O)C(C(=O)OC)C(=O)C(=O)Nc1c(Cl)cc([N+](=O)[O-])cc1Cl (centres undefined) | > 10 µM (inactive) | > 100 µM (inactive) | > 100 µM (inactive) | 37.1 µM (inactive) | > 100 µM (inactive) | 40.1 µM (inactive) | > 100 µM (inactive) | > 100 µM (inactive) | > 100 µM (inactive) | > 10 µM (inactive) | > 100 µM (inactive) | 62.4 µM (inactive) | > 100 µM (inactive) | > 100 µM (inactive) |  | > 100 µM (inactive) | 64 µM (inactive) | 64.1 µM (inactive) | > 100 µM (inactive) | > 100 µM (inactive)
